Experimental data as given in publication PMC4681449 (Molecular microbiology, 2015).

Biological target: CjArsP (Campylobacter jejuni, UniProt B5LWZ8)
Format: biochemical

CjArsP, sequence (B5LWZ8 1-315): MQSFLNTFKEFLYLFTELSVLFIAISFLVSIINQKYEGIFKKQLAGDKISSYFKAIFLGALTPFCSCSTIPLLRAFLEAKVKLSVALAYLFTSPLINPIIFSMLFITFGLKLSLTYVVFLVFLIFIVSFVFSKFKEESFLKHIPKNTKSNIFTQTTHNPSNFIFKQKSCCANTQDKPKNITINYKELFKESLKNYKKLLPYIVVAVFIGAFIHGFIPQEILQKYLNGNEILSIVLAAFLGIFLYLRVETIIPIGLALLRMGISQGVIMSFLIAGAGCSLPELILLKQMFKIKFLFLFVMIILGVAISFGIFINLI

C[As](O)O [MAs(III), methylarsenite]
uptake into everted membrane vesicles, As by ICP-MS: Everted membrane vesicles from cells expressing CjarsP accumulated MAs(III) when NADH was supplied
